From PubChem BioAssay (NCI) come the findings set out here.

Values joined by “and” are separate entries in the source; they are usually repeats but may differ in a detail not shown here. Identical values can stand only once.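 Briefly, cells in 96-well plates were exposed to five compound concentrations for 48 h, and endpoints were estimated by linear interpolation. GI50: concentration for 50% inhibition of growth. TGI: concentration producing complete growth inhibition.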

Test systems include UO-31 renal; NCI-H522 lung; SNB-75 CNS; HL-60(TB) leukemia; HOP-62 NSCLC; NCI-H460 lung; HT29 colon; MALME-3M melanoma; KM12 colon; UACC-62 melanoma.
Holding throughout (experiment): inhibition of tumour cell growth, NCI panel, 48 h

`OCCCNCc1ccccn1`: the TGI in the assay with UO-31 renal, in the assay on NCI-H522 lung, with SNB-75 CNS, with HL-60(TB) leukemia, in the assay with HOP-62 NSCLC and with NCI-H460 lung was more than 100 µM throughout. Also, the TGI with HT29 colon, with MALME-3M melanoma, with KM12 colon and in the assay on UACC-62 melanoma was more than 100 µM in each case.
As for `CCOC(=O)/C=C/c1ccc(C(=O)OCC)[nH]1`, the GI50 in the assay on UO-31 renal is 4 µM; in the assay with NCI-H522 lung it was 2.69 µM; in the assay on SNB-75 CNS, 2.82 µM; in the assay with HL-60(TB) leukemia, 1.62 µM; with HOP-62 NSCLC, 7.14 µM; with NCI-H460 lung it was 3.08 µM. Further, the GI50 in the assay on HT29 colon is 2.82 µM; in the assay with MALME-3M melanoma it was 2.89 µM; in the assay with KM12 colon, 0.601 µM; with UACC-62 melanoma, 5.23 µM. The TGI in the assay with UO-31 renal is more than 100 µM; in the assay with NCI-H522 lung, 8.89 µM; with SNB-75 CNS, 35.9 µM; in the assay with HL-60(TB) leukemia, 9.89 µM; in the assay on HOP-62 NSCLC it was more than 100 µM; with NCI-H460 lung it was 14.5 µM. Further, the TGI is 14.2 µM in the assay on HT29 colon, more than 100 µM in the assay on MALME-3M melanoma, 92.6 µM in the assay with KM12 colon and more than 100 µM in the assay with UACC-62 melanoma.
Regarding `CC(O)C(NC(=O)C(CS)NC(=O)C(CO)NC(=O)C(CCCCN)NC(=O)C(Cc1c[nH]c2ccccc12)NC(=O)C(Cc1ccc(O)cc1)NC(=O)C(CS)NC(=O)C(N)Cc1ccccc1)C(N)=O` (stereo not given), the TGI with UO-31 renal was more than 25 µM; in the assay with NCI-H522 lung, more than 25 µM; in the assay on SNB-75 CNS, 62.5 µM; with HL-60(TB) leukemia, > 25 µM and 40.5 µM; with HOP-62 NSCLC it was > 25 µM and 63.4 µM; with NCI-H460 lung it was > 25 µM and 53.8 µM. For the same compound, the TGI in the assay on HT29 colon is > 25 µM and 61.4 µM; with MALME-3M melanoma, more than 25 µM; in the assay with KM12 colon it was > 25 µM and 58 µM; in the assay with UACC-62 melanoma, > 25 µM and 57.8 µM. Also, the GI50 with HL-60(TB) leukemia is 21.5 µM.
Regarding `CC(=O)O/C(C)=C\C(=O)O/N=C(\N)c1ccc(C)cc1`, the TGI in the assay on UO-31 renal was more than 100 µM; in the assay on NCI-H522 lung, 49.1 µM; in the assay with SNB-75 CNS, 61 µM; in the assay with HL-60(TB) leukemia it was 77.3 µM; with HOP-62 NSCLC, more than 100 µM; in the assay on NCI-H460 lung, more than 100 µM. Further, the TGI in the assay on HT29 colon was more than 100 µM; in the assay with MALME-3M melanoma, 71.5 µM; with KM12 colon it was more than 100 µM; in the assay with UACC-62 melanoma, 56.7 µM.
`COc1cccc2c1C1=CC(=O)CCC1C(C)(C)O2` (stereo not given): the TGI in the assay with UO-31 renal, in the assay on NCI-H522 lung, with SNB-75 CNS, in the assay with HL-60(TB) leukemia, in the assay with HOP-62 NSCLC and with NCI-H460 lung was more than 100 µM in each case. For the same compound, the TGI with HT29 colon, in the assay on MALME-3M melanoma, with KM12 colon and with UACC-62 melanoma was more than 100 µM throughout.
For `COc1ccc(N=Cc2ccc(N(CCC#N)CCC#N)cc2)cc1`, the TGI in the assay on UO-31 renal, in the assay with NCI-H522 lung, in the assay with SNB-75 CNS, in the assay with HL-60(TB) leukemia, in the assay with HOP-62 NSCLC and in the assay with NCI-H460 lung was more than 100 µM throughout. The TGI with HT29 colon, in the assay on MALME-3M melanoma, in the assay with KM12 colon and in the assay with UACC-62 melanoma was more than 100 µM throughout.
In the case of `COC(=O)c1ccc(OCc2ccc3oc(=O)c(-c4ccccc4)nc3c2)cc1`, the TGI in the assay with UO-31 renal, in the assay on NCI-H522 lung, in the assay on SNB-75 CNS, in the assay with HL-60(TB) leukemia, in the assay with HOP-62 NSCLC and with NCI-H460 lung was more than 100 µM in each case. The TGI with HT29 colon, in the assay with MALME-3M melanoma and in the assay on KM12 colon was more than 100 µM each time.
In the case of `CCN(CC)C(=S)SSC1CCCCC1`, the GI50 with UO-31 renal was 12.1 µM; in the assay on NCI-H522 lung, 2.91 µM; with SNB-75 CNS, 17.5 µM; with HL-60(TB) leukemia it was 13.6 µM; in the assay on HOP-62 NSCLC it was 26.8 µM; in the assay on NCI-H460 lung, 18.3 µM. Also, the GI50 with HT29 colon was 15.3 µM; with MALME-3M melanoma it was 20.8 µM; in the assay on KM12 colon, 13 µM; in the assay on UACC-62 melanoma, 18 µM. Also, the TGI was 25.7 µM in the assay with UO-31 renal; 12.7 µM with NCI-H522 lung; 48 µM in the assay with SNB-75 CNS; 47.2 µM in the assay on HL-60(TB) leukemia; 77.9 µM in the assay with HOP-62 NSCLC; 52.7 µM in the assay with NCI-H460 lung. The TGI was determined as 34.8 µM in the assay on HT29 colon, 46.3 µM in the assay with MALME-3M melanoma, 28.8 µM in the assay with KM12 colon and 42.8 µM in the assay with UACC-62 melanoma.
For the compound `O=C(/C=C/c1ccc([N+](=O)[O-])o1)NNC(=O)c1cc2ccccc2cc1O`, the GI50 is 1.2 µM in the assay with UO-31 renal; 0.565 µM in the assay on NCI-H522 lung; 1.72 µM in the assay with SNB-75 CNS; 0.962 µM in the assay with HL-60(TB) leukemia; 3.67 µM with HOP-62 NSCLC; 2.82 µM in the assay with NCI-H460 lung. Moreover, the GI50 in the assay on HT29 colon was 2.88 µM; in the assay on MALME-3M melanoma it was 1.34 µM; in the assay on KM12 colon, 2.18 µM; in the assay with UACC-62 melanoma, 0.694 µM. For the same compound, the TGI is 3.78 µM in the assay with UO-31 renal; 2.03 µM with NCI-H522 lung; more than 100 µM in the assay on SNB-75 CNS; more than 100 µM in the assay on HL-60(TB) leukemia; more than 100 µM in the assay on HOP-62 NSCLC; more than 100 µM in the assay with NCI-H460 lung. For the same compound, the TGI is more than 100 µM in the assay with HT29 colon, 4.91 µM in the assay on MALME-3M melanoma, more than 23 µM with KM12 colon and 2.26 µM in the assay with UACC-62 melanoma.
Take `OC1CCC(C2C3CCCCC3C3CCCCC3C2C2CCC(O)CC2)CC1` (stereo not given): the TGI worked out at 36.5 µM in the assay on UO-31 renal; 6.37 µM in the assay with NCI-H522 lung; 21.6 µM in the assay on SNB-75 CNS; 62.2 µM in the assay on HL-60(TB) leukemia; 47.4 µM with HOP-62 NSCLC; 10.2 µM in the assay with NCI-H460 lung. Moreover, the TGI is 3.96 µM in the assay on HT29 colon, 41.7 µM in the assay on MALME-3M melanoma, 15.5 µM in the assay with KM12 colon and 31.2 µM with UACC-62 melanoma.
`CCCCCCCCCCCCC(SCCNC(=O)CCNC(=O)C(O)C(C)(C)COP(=O)(O)OP(=O)(O)OCC1OC(n2cnc3c(N)ncnc32)C(O)C1OP(=O)(O)O)C(=O)NCC(N)=O` (stereo not given): the TGI was more than 100 µM in the assay on UO-31 renal; more than 100 µM in the assay on NCI-H522 lung; 9.04 µM in the assay on SNB-75 CNS; more than 100 µM with HL-60(TB) leukemia; more than 100 µM in the assay with HOP-62 NSCLC; more than 100 µM in the assay with NCI-H460 lung. Besides, the TGI in the assay with HT29 colon, with MALME-3M melanoma, with KM12 colon and in the assay on UACC-62 melanoma was more than 100 µM in each case.
